Laboratory results as given in patent US11566007B2, “Ras inhibitors” (Revolution Medicines, Inc., priority 2019, dated 2023).
pIC50: −log10 of the molar value. Where two headings read alike, the source gives them in different places.

What was measured:
K-Ras G13C = K-Ras G13C (Homo sapiens (Human), UniProt P01116+P62937, G13C); assay: Ras-Raf (BRAF RBD) disruption / FRET / MOA assay, KRAS G13C; format: biochemical; conditions: KRAS G13C; Ras-Raf disruption/FRET/MOA assay; read-out: IC50* KRAS G13C FRET data
K-Ras G13C, sequence (P01116-2 other isoform, or with tags, fused parts or gaps G13C): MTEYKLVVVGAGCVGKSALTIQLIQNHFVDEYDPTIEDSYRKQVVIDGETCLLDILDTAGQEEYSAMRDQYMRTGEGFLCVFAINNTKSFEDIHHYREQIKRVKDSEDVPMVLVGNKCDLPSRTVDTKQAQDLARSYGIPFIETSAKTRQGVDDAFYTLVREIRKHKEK
K-Ras G13C, sequence (P62937 whole entry): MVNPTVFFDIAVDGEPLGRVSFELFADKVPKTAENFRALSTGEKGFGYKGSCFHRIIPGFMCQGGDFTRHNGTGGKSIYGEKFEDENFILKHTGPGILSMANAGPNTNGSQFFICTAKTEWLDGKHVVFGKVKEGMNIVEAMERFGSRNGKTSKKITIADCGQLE
Method in brief: (§1)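 Compound-driven ternary complex of nucleotide-loaded Ras with cyclophilin A, disrupting BRAF RBD binding. 10-point 3-fold dilution from 30 μM final, 3 h at 25° C, then anti-His Eu-W1024 (10 nM) and anti-GST allophycocyanin (50 nM) for 1.5 h. IC50 from TR-FRET ratio decrease versus DMSO.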

KRAS G13D = KRAS G13D (Homo sapiens (Human), UniProt P01116+P62937, G13D); assay: Ras-Raf (BRAF RBD) disruption / FRET / MOA assay, KRAS G13D; format: biochemical; conditions: read-out: IC50* KRAS G13D FRET data
KRAS G13D, sequence (P01116-2 other isoform, or with tags, fused parts or gaps G13D): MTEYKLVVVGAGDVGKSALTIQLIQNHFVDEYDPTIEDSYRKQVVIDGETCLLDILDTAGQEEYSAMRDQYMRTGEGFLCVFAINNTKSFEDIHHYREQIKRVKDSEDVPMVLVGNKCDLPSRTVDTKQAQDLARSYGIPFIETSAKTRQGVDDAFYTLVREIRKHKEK
KRAS G13D, sequence (P62937 whole entry): as the sequence (P62937 whole entry) above
Method in brief: as §1

NCI-H358 (K-Ras G12C) = assay: CellTiter-Glo cell viability assay, NCI-H358; format: cell-based, human; conditions: NCI-H358, 5-day treatment, class symbols, read-out: Additional H358 Cell Viability assay data (K-Ras G12C, IC50)
Method in brief: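 Four-parameter logistic fits were applied to luminescence data normalized against DMSO-treated wells. Readings were taken on day 5 following direct compound addition, after roughly 30 minutes at room temperature.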

KRAS G12V = KRAS G12V (Homo sapiens (Human), UniProt P01116+P62937, G12V); assay: Ras-Raf (BRAF RBD) disruption / FRET / MOA assay, KRAS G12V; format: biochemical; conditions: read-out: IC50* KRAS G12V FRET data
KRAS G12V, sequence (P01116-2 other isoform, or with tags, fused parts or gaps G12V): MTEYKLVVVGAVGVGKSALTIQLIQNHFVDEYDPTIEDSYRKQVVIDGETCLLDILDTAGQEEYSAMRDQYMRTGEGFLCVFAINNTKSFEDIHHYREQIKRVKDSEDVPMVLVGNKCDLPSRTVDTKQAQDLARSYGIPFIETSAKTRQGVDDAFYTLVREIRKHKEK
KRAS G12V, sequence (P62937 whole entry): as the sequence (P62937 whole entry) above
Method in brief: as §1

KRAS WT = KRAS WT (Homo sapiens (Human), UniProt P01116+P62937); assay: Ras-Raf (BRAF RBD) disruption / FRET / MOA assay, KRAS WT; format: biochemical; conditions: read-out: IC50* KRAS WT FRET data
KRAS WT, sequence (P01116-2 other isoform, or with tags, fused parts or gaps): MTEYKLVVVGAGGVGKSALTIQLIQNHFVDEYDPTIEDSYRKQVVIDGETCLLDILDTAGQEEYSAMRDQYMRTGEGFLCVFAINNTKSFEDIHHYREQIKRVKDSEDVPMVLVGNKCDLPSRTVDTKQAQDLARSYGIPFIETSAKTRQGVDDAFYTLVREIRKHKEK
KRAS WT, sequence (P62937 whole entry): as the sequence (P62937 whole entry) above
Method in brief: as §1

NRAS G12C = NRAS G12C (Homo sapiens (Human), UniProt P01111+P62937, G12C); assay: Ras-Raf (BRAF RBD) disruption / FRET / MOA assay, NRAS G12C; format: biochemical; conditions: read-out: IC50* NRAS G12C FRET data
NRAS G12C, sequence (P01111 whole entry G12C): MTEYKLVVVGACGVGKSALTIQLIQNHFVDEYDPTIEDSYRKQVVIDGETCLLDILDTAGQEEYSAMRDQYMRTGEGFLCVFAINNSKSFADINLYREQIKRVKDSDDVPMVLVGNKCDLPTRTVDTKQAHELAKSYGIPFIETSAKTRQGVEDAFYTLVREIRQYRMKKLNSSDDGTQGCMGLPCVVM
NRAS G12C, sequence (P62937 whole entry): as the sequence (P62937 whole entry) above
Method in brief: as §1

KRAS G12S = KRAS G12S (Homo sapiens (Human), UniProt P01116+P62937, G12S); assay: Ras-Raf (BRAF RBD) disruption / FRET / MOA assay, KRAS G12S; format: biochemical; conditions: Ras-Raf disruption/FRET/MOA assay; class symbols; read-out: KRAS G12S FRET data IC50
KRAS G12S, sequence (P01116-2 other isoform, or with tags, fused parts or gaps G12S): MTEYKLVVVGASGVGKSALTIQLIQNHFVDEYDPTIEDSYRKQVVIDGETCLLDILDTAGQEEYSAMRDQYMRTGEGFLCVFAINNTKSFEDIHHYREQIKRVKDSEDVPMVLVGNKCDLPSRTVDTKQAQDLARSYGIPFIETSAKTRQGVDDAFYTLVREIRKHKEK
KRAS G12S, sequence (P62937 whole entry): as the sequence (P62937 whole entry) above
Method in brief: as §1

KRAS G12D = KRAS G12D (Homo sapiens (Human), UniProt P01116+P62937, G12D); assay: Ras-Raf (BRAF RBD) disruption / FRET / MOA assay, KRAS G12D; format: biochemical; conditions: Ras-Raf disruption/FRET/MOA assay; class symbols; read-out: KRAS G12D FRET data IC50
KRAS G12D, sequence (P01116-2 other isoform, or with tags, fused parts or gaps G12D): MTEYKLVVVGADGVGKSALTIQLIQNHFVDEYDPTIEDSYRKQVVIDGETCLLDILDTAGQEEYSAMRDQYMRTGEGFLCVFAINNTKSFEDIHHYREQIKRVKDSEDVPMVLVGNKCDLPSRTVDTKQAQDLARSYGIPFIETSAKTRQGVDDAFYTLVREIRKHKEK
KRAS G12D, sequence (P62937 whole entry): as the sequence (P62937 whole entry) above
Method in brief: as §1

K-Ras G12C = K-Ras G12C (Homo sapiens (Human), UniProt P01116+P62937, G12C); assay: Ras-Raf (BRAF RBD) disruption / FRET / MOA assay, KRAS G12C; format: biochemical; conditions: KRAS G12C; Ras-Raf disruption/FRET/MOA assay; read-out: IC50* KRAS G12C FRET data
K-Ras G12C, sequence (P01116-2 other isoform, or with tags, fused parts or gaps G12C): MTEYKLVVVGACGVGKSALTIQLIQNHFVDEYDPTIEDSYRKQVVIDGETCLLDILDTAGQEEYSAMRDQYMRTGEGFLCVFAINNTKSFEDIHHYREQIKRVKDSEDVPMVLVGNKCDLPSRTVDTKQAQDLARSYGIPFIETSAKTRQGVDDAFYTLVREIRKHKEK
K-Ras G12C, sequence (P62937 whole entry): as the sequence (P62937 whole entry) above
Method in brief: as §1

Row | Structure (SMILES) | pIC50 (K-Ras G13C) | pIC50 (KRAS G13D) | pIC50 (NCI-H358 (K-Ras G12C)) | pIC50 (KRAS G12V) | pIC50 (KRAS WT) | pIC50 (NRAS G12C) | pIC50 (KRAS G12S) | pIC50 (KRAS G12D) | pIC50 (K-Ras G12C) | pIC50 (NCI-H358 (K-Ras G12C); Homo sapiens, NCI-H358, 120 h)
1 | CCn1c(-c2cccnc2[C@H](C)OC)c2c3cc(ccc31)-c1cccc(c1)C[C@H](NC(=O)[C@H](C(C)C)N(C)C(=O)[C@H]1CCN(C(=O)/C=C/CN3CC(OC)C3)C1)C(=O)N1CCC[C@H](N1)C(=O)OCC(C)(C)C2 (atropisomer, axis not shown) [Example A203] | < 5.00 | < 5.00 | < 6.00 | < 5.00 | < 5.00 | 5.00 to 6.00 | < 5.00 | < 5.00 | 5.00 to 6.00 | 
2 | C=CC(=O)N1CC[C@H](C(=O)N(C)[C@H](C(=O)N[C@H]2Cc3ncc(n3C)-c3ccc4c(c3)c(c(-c3cccnc3[C@H](C)OC)n4CC)CC(C)(C)COC(=O)[C@@H]3CCCN(N3)C2=O)C(C)C)C1 (atropisomer, axis not shown) [Example A276] | < 5.00 | < 5.00 |  | < 5.00 | < 5.00 | 5.00 to 6.00 | < 5.00 | < 5.00 | 5.00 to 6.00 | < 6.00
3 | C=CC(=O)N1CC[C@H](C(=O)N(C)[C@H](C(=O)N[C@H]2Cc3nc(cs3)-c3ccc4c(c3)c(c(-c3cccnc3[C@H](C)OC)n4CC)CC(C)(C)C/C=C/[C@@H]3CCCN(N3)C2=O)C(C)C)C1 (atropisomer, axis not shown) [Example A286] | < 5.00 | < 5.00 |  | < 5.00 | < 5.00 | < 5.00 | < 5.00 | < 5.00 | < 5.00 | < 6.00
4 | C=CC(=O)N1CC[C@H](C(=O)N(C)[C@H](C(=O)N[C@H]2Cc3nc(cs3)-c3ccc4c(c3)c(c(-c3cccnc3[C@H](C)OC)n4CC)CC(C)(C)CCC[C@@H]3CCCN(N3)C2=O)C(C)C)C1 (atropisomer, axis not shown) [Example A288] | < 5.00 | < 5.00 |  | < 5.00 | < 5.00 | < 5.00 | < 5.00 | < 5.00 | < 5.00 | < 6.00
5 | C/C=C(\C)S(=O)(=O)N1CC[C@H](C(=O)N(C)[C@H](C(=O)N[C@H]2Cc3cccc(c3)-c3ccc4c(c3)c(c(-c3cccnc3[C@H](C)OC)n4CC)CC(C)(C)COC(=O)[C@@H]3CCCN(N3)C2=O)C(C)C)C1 (atropisomer, axis not shown) [Example A308] | 5.00 to 6.00 | < 5.00 |  | < 5.00 | < 5.00 | < 5.00 | < 5.00 | < 5.00 | < 5.00 | 6.00 to 7.00
6 | C=CC(=O)N1CC[C@H](C(=O)N(C2CC2)[C@H](C(=O)N[C@H]2Cc3cccc(c3)-c3ccc4c(c3)c(c(-c3cccnc3[C@H](C)OC)n4CC)CC(C)(C)COC(=O)[C@@H]3CCCN(N3)C2=O)C(C)C)C1 (atropisomer, axis not shown) [Example A398] | 5.00 to 6.00 | < 5.00 |  | 5.00 to 6.00 | 5.00 to 6.00 | 5.00 to 6.00 | < 5.00 | < 5.00 | 5.00 to 6.00 | 6.00 to 7.00
7 | C=CC(=O)N1CC[C@H](C(=O)N(C)[C@H](C(=O)N[C@H]2Cc3cccc(c3)-c3ccc4c(c3)c(c(-c3cccnc3[C@H](C)OC)n4CC)CC(C)(C)COC(=O)[C@@H]3CCCN(N3)C2=O)C(C)C)[C@@H]1C (atropisomer, axis not shown) [Example A480] | 5.00 to 6.00 | < 5.00 |  | < 5.00 | < 5.00 | 5.00 to 6.00 | < 5.00 | < 5.00 | 5.00 to 6.00 | < 6.00
8 | C=CC(=O)N1CC[C@H](C(=O)N(C)[C@H](C(=O)N[C@H]2Cn3cnc(n3)-c3ccc4c(c3)c(c(-c3cccnc3[C@H](C)OC)n4CC)CC(C)(C)COC(=O)[C@@H]3CCCN(N3)C2=O)C(C)C)C1 (atropisomer, axis not shown) [Example A506] | 5.00 to 6.00 | < 5.00 |  | 5.00 to 6.00 | 5.00 to 6.00 | 6.00 to 7.00 | 5.00 to 6.00 | < 5.00 | 6.00 to 7.00 | 6.00 to 7.00
9 | C=CC(=O)N1CC[C@H](C(=O)N(C)[C@H](C(=O)N[C@H]2Cc3cccc(c3)-c3ccc4c(c3)c(c(-c3cc(C5CCN(C)CC5)cnc3[C@H](C)OC)n4CC)CC(C)(C)COC(=O)[C@@H]3CCCN(N3)C2=O)C(C)C)C1 (atropisomer, axis not shown) [Example A516] | 5.00 to 6.00 | < 5.00 | < 6.00 | < 5.00 | < 5.00 | 5.00 to 6.00 | < 5.00 | < 5.00 | 5.00 to 6.00 | 
10 | C=CC(=O)N1CC(OCC(C(=O)N[C@H]2Cc3cc(cc(C(F)F)c3)-c3ccc4c(c3)c(c(-c3cccnc3[C@H](C)OC)n4CC(F)(F)F)CC(C)(C)COC(=O)[C@@H]3CCCN(N3)C2=O)C(C)C)C1 (mixture of isomers) [Example A428] | < 5.00 | < 5.00 |  | < 5.00 | < 5.00 | < 5.00 | < 5.00 | < 5.00 | < 5.00 | < 6.00
11 | C=CC(=O)N1CC(OCC(C(=O)N[C@H]2Cc3cc(cc(C(F)F)c3)-c3ccc4c(c3)c(c(-c3cccnc3[C@H](C)OC)n4CC)CC(C)(C)COC(=O)[C@@H]3CCCN(N3)C2=O)C(C)C)C1 (mixture of isomers) [Example A450] | < 5.00 | < 5.00 |  | < 5.00 | < 5.00 | < 5.00 | < 5.00 | < 5.00 | < 5.00 | < 6.00
12 | C=CC(=O)N1CC(OCC(C(=O)N[C@H]2Cc3cccc(c3)-c3ccc4c(c3)c(c(-c3cccnc3[C@H](C)OC)n4CC)CC(C)(C)COC(=O)[C@@H]3CCCN(N3)C2=O)C(C)C)C1 (mixture of isomers) [Example A484] | 5.00 to 6.00 | < 5.00 |  | < 5.00 | < 5.00 | 5.00 to 6.00 | < 5.00 | < 5.00 | 6.00 to 7.00 | 6.00 to 7.00
13 | C=CC(=O)N1CCC(C(=O)N(C)[C@H](C(=O)N[C@H]2Cc3cc(O)cc(c3)-c3ccc4c(c3)c(c(-c3ccccc3CCOC)n4CC)CC(C)(C)c3coc(n3)[C@@H]3CCCN(N3)C2=O)C(C)C)C1 (single isomer, unassigned) [Example A231] | < 5.00 | < 5.00 |  | < 5.00 | < 5.00 | < 5.00 | < 5.00 | < 5.00 | < 5.00 | < 6.00
14 | C=CC(=O)N1CC[C@H](C(=O)N(C)[C@H](C(=O)N[C@H]2Cc3cccc(c3)-c3ccc4c(c3)c(c(-c3cnccc3[C@H](C)OC)n4CC)CC(C)(C)COC(=O)[C@@H]3CCCN(N3)C2=O)C(C)C)C1 [Example A122] | < 5.00 | < 5.00 |  | < 5.00 | < 5.00 | < 5.00 | < 5.00 | < 5.00 | < 5.00 | < 6.00
15 | C=CC(=O)N1CC[C@H](C(=O)N(C)[C@H](C(=O)N[C@H]2Cc3cc(O)cc(c3)-c3ccc4c(c3)c(c(-c3cccnc3CNC)n4CC)CC(C)(C)COC(=O)[C@@H]3CCCN(N3)C2=O)C(C)C)C1 [Example A137] | < 5.00 | < 5.00 |  | 5.00 to 6.00 | 5.00 to 6.00 | 6.00 to 7.00 | 5.00 to 6.00 | < 5.00 | 6.00 to 7.00 | < 6.00
16 | CCn1c(-c2cccnc2COC)c2c3cc(ccc31)-c1cc(O)cc(c1)C[C@H](NC(=O)[C@H](C(C)C)N(C)C(=O)[C@H]1CCC(C(=O)/C=C\CN(C)C)C1)C(=O)N1CCC[C@H](N1)C(=O)OCC(C)(C)C2 (stereo partly drawn) [Example A161] | 5.00 to 6.00 | 5.00 to 6.00 | < 6.00 | 5.00 to 6.00 | 5.00 to 6.00 | 6.00 to 7.00 | 5.00 to 6.00 | < 5.00 | 6.00 to 7.00 | 
17 | COCc1ncccc1-c1nc2ccc3cc2n1CC(C)(C)COC(=O)[C@@H]1CCCN(N1)C(=O)[C@@H](NC(=O)[C@H](C(C)C)N(C)C(=O)[C@H]1CCN(C(=O)C#CCN2CCOCC2)C1)Cc1cc(O)cc-3c1 [Example A188] | < 5.00 | < 5.00 |  | < 5.00 | < 5.00 | 6.00 to 7.00 | < 5.00 | < 5.00 | 6.00 to 7.00 | < 6.00
